# pIC50: −log10 of the molar value.
# Molecular target: hQC (Homo sapiens, UniProt Q16769)
# Test: Fluorometric (fluorescent) assay of hQC inhibition, IC50
# Assay type: biochemical
# Conditions: hQC inhibition; read-out: IC50
# Procedure, shortened: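 Two coupled fluorometric formats at 30° C, pH 8.0 Tris/HCl with EDTA: H-Gln-βNA at 0.2 mM read at 320/410 nm, or H-Gln-AMC at varied levels read at 380/460 nm, each started by adding QC.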
# Sequence of hQC (Q16769 29-361): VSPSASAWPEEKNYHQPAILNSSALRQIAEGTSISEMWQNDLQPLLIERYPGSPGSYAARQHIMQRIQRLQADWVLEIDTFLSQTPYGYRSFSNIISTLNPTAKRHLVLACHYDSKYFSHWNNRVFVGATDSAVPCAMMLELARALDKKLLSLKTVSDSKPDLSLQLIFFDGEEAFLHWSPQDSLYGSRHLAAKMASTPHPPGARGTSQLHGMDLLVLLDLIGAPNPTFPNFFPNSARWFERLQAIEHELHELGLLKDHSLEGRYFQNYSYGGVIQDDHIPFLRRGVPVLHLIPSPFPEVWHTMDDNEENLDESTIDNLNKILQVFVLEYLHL
row,SMILES,pIC50
1,"Clc1ccc(Cn2nnnc2C(Nc2ccc3[nH]cnc3c2)c2ccc(Cl)cc2)cc1 (stereo not drawn) [compound 136, (1H-Benzoimidazol-5-yl)-[[1-(4-chloro-benzyl)-1H-tetrazol-5-yl]-(4-chloro-phenyl)-methyl]-amine]",5.40
2,"c1nc2cc(NC(c3ccc(N4CCCC4)cc3)c3nnnn3CC3CCCO3)ccc2[nH]1 (stereo not drawn) [compound 134, (1H-Benzoimidazol-5-yl)-{(4-pyrolidin-1-yl-phenyl)-[1-(tetrahydro-furan-2-ylmethyl)-1H-tetrazol-5-yl]-methyl}-amine]",5.17
3,CC(C)(C)n1nnnc1C(Nc1ccc2[nH]cnc2c1)c1csc2ccccc12 (stereo not drawn) [compound 123],5.07
4,"COC(=O)c1cccc(C(Nc2ccc3[nH]cnc3c2)c2nnnn2CC2CCCO2)c1 (stereo not drawn) [compound 154, 3-{(1H-Benzoimidazol-5-ylamino)-[1-(tetrahydro-furan-2-ylmethyl)-1H-tetrazol-5-yl]-methyl}-benzoic acid methyl ester]",5.24
5,c1nc2cc(NC(c3ccc4c(c3)OCO4)c3nnnn3CC3CCCO3)ccc2[nH]1 (stereo not drawn) [compound 118],5.17
6,"COc1ccc(C(Nc2ccc3[nH]cnc3c2)c2nnnn2CC(=O)OC(C)(C)C)cc1 (stereo not drawn) [compound 172, {5-[(1H-Benzoimidazol-5-ylamino)-(4-methoxy-phenyl)-methyl]-tetrazol-1-yl}-acetic acid tert-butyl ester]",5.40

# Same assay, conditions: read-out: IC50
row,SMILES,pIC50
1,"COC(=O)Cn1nnnc1C(NCCCn1ccnc1)c1ccc(F)c(C#N)c1 (stereo not drawn) [compound 53, {5-[(3-Cyano-4-fluoro-phenyl)-(3-imidazol-1-yl-propylamino)-methyl]-tetrazol-1-yl}-acetic methyl ester]",5.40
2,"c1ccc2nc(C(NCCCn3ccnc3)c3nnnn3C[C@@H]3CCCO3)ccc2c1 (stereo partly drawn) [compound 14, (3-Imidazol-1-yl-propyl)-(quinolin-2-yl-{1-[(S)-1-(tetrahydro-furan-2-yl)methyl]-1H-tetrazol-5-yl}-methyl)-amine]",5.66
3,"CCCC(C)C(Nc1ccc2[nH]cnc2c1)c1nnnn1CC(=O)N1CCc2ccccc2C1 (stereo not drawn) [compound 98, 2-{5-[1-(1H-Benzoimidazol-5-ylamino)-2-methyl-pentyl]-tetrazol-1-yl}-1-(3,4-dihydro-1H-isoquinolin-2-yl)-ethanone]",5.17
4,"Clc1ccc(Cn2nnnc2C(NCCCn2ccnc2)c2ccc3ccccc3n2)cc1 (stereo not drawn) [compound 7, {[1-(4-Chloro-benzyl)-1H-tetrazol-5-yl]-quinolin-2-yl-methyl}-(3-imidazol-1-yl-propyl)-amine]",5.89
5,"CC(C)(C)n1nnnc1C(NCCCn1ccnc1)c1ccc2cccc(O)c2n1 (stereo not drawn) [compound 60, 2-[(1-tert-Butyl-1H-tetrazol-5-yl)-(3-imidazol-1-yl-propylamino)-methyl]-quinolin-8-ol]",6.40
6,"Oc1cccc2ccc(C(NCCCn3ccnc3)c3nnnn3C3CCCC3)nc12 (stereo not drawn) [compound 25, 2-[(1-Cyclopentyl-1H-tetrazol-5-yl)-(3-imidazol-1-yl-propylamino)-methyl]-quinolin-8-ol]",5.66
